Experimental data taken from ChEMBL document CHEMBL1134787, “Synthesis and biological studies of novel nucleoside phosphoramidate prodrugs” (J Med Chem, 2001).

Assays:
L1210 [1] = assay: Growth inhibition in L1210 mouse leukemia cells after 24 h treatment; type: functional, cell-based; conditions: L1210, 24 h
L1210 [2] = assay: Growth inhibition in L1210 mouse leukemia cells after 2 hr treatment; type: functional, cell-based; conditions: L1210, 2 h
L1210 [3] = assay: Growth inhibition in L1210 mouse leukemia cells after 48 hr treatment; type: functional, cell-based; conditions: L1210, 48 h
L1210 [4] = assay: Growth inhibition in L1210 mouse leukemia cells after 8 h treatment; type: functional, cell-based; conditions: L1210, 8 h
Thymidylate synthase [5] = target: T1, Thymidylate synthase (Mus musculus, UniProt P07607); assay: Thymidylate synthase inhibition in thymidine kinase deficient LM cells after 2 hr treatment; type: cell-based
T1 sequence (P07607 whole entry): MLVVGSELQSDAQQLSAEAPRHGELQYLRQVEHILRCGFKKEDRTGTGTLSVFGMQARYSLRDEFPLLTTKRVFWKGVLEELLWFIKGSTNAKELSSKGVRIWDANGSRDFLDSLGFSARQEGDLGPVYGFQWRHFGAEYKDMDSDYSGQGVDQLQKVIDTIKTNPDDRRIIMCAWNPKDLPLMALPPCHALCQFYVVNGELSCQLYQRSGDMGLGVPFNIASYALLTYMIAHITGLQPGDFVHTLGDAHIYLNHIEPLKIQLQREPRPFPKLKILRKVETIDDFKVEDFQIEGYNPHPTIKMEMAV

Thymidylate synthase [6] = target: T1, Thymidylate synthase; assay: Thymidylate synthase inhibition in L1210 mouse leukemia cells after 2 hr treatment; type: cell-based
Thymidylate synthase [7] = target: T1, Thymidylate synthase; assay: Thymidylate synthase inhibition in thymidine kinase deficient /TK cells after 2 hr treatment
Thymidylate synthase [8] = target: T1, Thymidylate synthase; assay: Thymidylate synthase inhibition in wild type LM cells after 2 hr treatment; type: cell-based

Q: Which results are given for `O=c1[nH]cc(F)c(=O)[nH]1` [FLUOROURACIL]?
A: IC50 (L1210 [1]): 360 nM; IC50 (L1210 [2]): 2500 nM; IC50 (L1210 [3]): 200 nM; IC50 (L1210 [4]): 1010 nM

Q: For `CN(CCCCCl)P(=O)(OCC1=CC(=O)c2ccccc2C1=O)OC[C@H]1O[C@@H](n2cc(F)c(=O)[nH]c2=O)C[C@@H]1O` (some centres not stated), which IC50 (Thymidylate synthase [5]) is on record?
A: 5.9 µM

Q: And the IC50 (L1210 [1])?
A: 3.1 nM

Q: And the IC50 (Thymidylate synthase [6])?
A: 10 nM

Q: What about the IC50 (L1210 [2]) of the same compound?
A: 44 nM

Q: And the IC50 (L1210 [3])?
A: 0.63 nM

Q: What about the IC50 (Thymidylate synthase [7]) of the same compound?
A: 25 nM

Q: What about the IC50 (L1210 [4]) of the same compound?
A: 16 nM

Q: What about the IC50 (Thymidylate synthase [8]) of the same compound?
A: 230 nM

Q: What does the source list for `CN(CCBr)P(=O)(OCc1ccc([N+](=O)[O-])o1)OC[C@H]1O[C@@H](n2cc(F)c(=O)[nH]c2=O)C[C@@H]1O` (some centres not stated)?
A: IC50 (L1210 [1]): 56 nM; IC50 (L1210 [2]): 1030 nM; IC50 (L1210 [3]): 16 nM; IC50 (L1210 [4]): 347 nM

Q: `CN(CCCCCl)P(=O)(OCc1ccc([N+](=O)[O-])o1)OC[C@H]1O[C@@H](n2cc(F)c(=O)[nH]c2=O)C[C@@H]1O` (some centres not stated) was tested. Which IC50 (Thymidylate synthase [5]) did it give?
A: 1.06 µM

Q: And the IC50 (L1210 [1])?
A: 7.2 nM

Q: And the IC50 (Thymidylate synthase [6])?
A: 65 nM

Q: What about the IC50 (L1210 [2]) of the same compound?
A: 116 nM

Q: What about the IC50 (L1210 [3]) of the same compound?
A: 2.3 nM

Q: What about the IC50 (Thymidylate synthase [7]) of the same compound?
A: 1.9 nM

Q: And the IC50 (L1210 [4])?
A: 47 nM

Q: And the IC50 (Thymidylate synthase [8])?
A: 560 nM

Q: What does the source list for `O=c1[nH]c(=O)n([C@H]2C[C@H](O)[C@@H](CO)O2)cc1F` [FLOXURIDINE]?
A: IC50 (Thymidylate synthase [5]): 5.4 µM; IC50 (L1210 [1]): 4.1 nM; IC50 (Thymidylate synthase [6]): 7.9 nM; IC50 (L1210 [2]): 45 nM; IC50 (L1210 [3]): 0.64 nM; IC50 (Thymidylate synthase [7]): 20 nM; IC50 (L1210 [4]): 23 nM; IC50 (Thymidylate synthase [8]): 260 nM
